This is an account of results in patent US20030195376A1, “Novel intermediate and processes for its preparation and conversion into a pharmacologically-active agent” (priority 2002, published 2003).

In data set [1] the test system is neuronal uptake of dopamine. The conditions noted are these: relative to serotonin-norepinephrine uptake; cited from earlier work.
For data set [2] the following is noted: in vivo; cited from earlier work.
Data set [3] is described as follows: Solubility in solvents (product characteristics). In kind it is physicochemical. The following applies: in methanol.
Where [4] appears, read: ethanol, chloroform, dichloromethane, acetone, ethyl acetate, benzene, toluene and isopropyl alcohol.

SMILES strings stand for the structures.

As for `COc1ccc(C(CN(C)C)C2(O)CCCCC2)cc1` (racemic) [formula (IX), (±)-1-[2-dimethylamino-1-(4-methoxy-phenyl)-ethyl]-cyclohexanol], the “inhibition of neuronal uptake of dopamine” value in data set [1] is reported as “to a lesser extent”. Besides, the “effectiveness compared with standard antidepressants such as imipramine” value in data set [2] is “as effective as”. Take `COc1ccc(C2(C#N)OC23CCCCC3)cc1` (stereo not shown) [formula (I), 2-(4-methoxy-phenyl)-1-oxa-spiro[2.5]octane-2-carbonitrile]: in data set [3] (setting [4]), the Solubility entry is on record as “Soluble in methanol, ethanol, chloroform, dichloromethane,”. On to `COc1ccc(C(=O)C2(Br)CCCCC2)cc1` [formula (II), (1-bromo-cyclohexyl)-(4-methoxy-phenyl)-methanone], for which the Solubility result in data set [3] (setting [4]) is listed as “Soluble in methanol, ethanol, chloroform, dichloromethane,”. With `COc1ccc(C(=O)C2CCCCC2)cc1` [formula (III), cyclohexyl-(4-methoxy-phenyl)-methanone], the Solubility result in data set [3] (setting [4]) was “Soluble in Methanol, ethanol, chloroform, dichloromethane,”. For the compound `COc1ccc(C(O)C2CCCCC2)cc1` (stereo not shown) [formula (V), cyclohexyl-(4-methoxy-phenyl)-methanol], the Solubility result in data set [3] (ethanol, chloroform, dichloromethane, acetone, ethyl acetate etc.) is listed as “Soluble in methanol, ethanol, chloroform,”. Take `COc1ccc(C(CN)C2(O)CCCCC2)cc1` (stereo not shown) [formula (X), 1-[2-amino-1-(4-methoxy-phenyl)-ethyl]-cyclohexanol]: the Solubility result in data set [3] (chloroform and water) was “Soluble in methanol, chloroform and water”.
